Data reported in ChEMBL document CHEMBL1795228, “Air to lung partition coefficients for volatile organic compounds and blood to lung partition coefficients for volatile organic compounds and drugs” (Eur J Med Chem, 2008).

Columns and labels:
[1] = In-vivo plasma to lung partition coefficients of the compound, logP(lung) in rat; type: ADME, cell-free
[2] = In-vitro blood to lung partition coefficients of the compound, logP(lung) (human/rat)
[3] = In-vitro air to blood partition coefficients of the compound, logK(blood) (human/rat); conditions: octanol/water
[4] = In-vitro air to lung partition coefficients of the compound, logK(lung) (human/rat); conditions: octanol/water

For `Cn1c(=O)c2[nH]cnc2n(C)c1=O.O` [THEOPHYLLINE], the “logP(lung)” value [1] was -0.15.

For `OC(CCN1CCCCC1)(c1ccccc1)C1CC2C=CC1C2` (centres undefined) [BIPERIDEN], the “logP(lung)” value [1] was 1.79.

For `O=C1Nc2ccc(Cl)cc2C(c2ccccc2Cl)=NC1O` (centres undefined) [LORAZEPAM], the “logP(lung)” value [1] was 0.44.

For `Cc1nnc(SCC2=C(C(=O)O)N3C(=O)[C@@H](NC(=O)Cn4cnnn4)[C@H]3SC2)s1` [CEFAZOLIN], the “logP(lung)” value [1] was -0.78.

For `ClC(Cl)Cl` [CHLOROFORM], the “logP(lung)” value [2] was -0.03, the “logK(blood)” value [3] was 1.15 and the “logK(lung)” value [4] was 1.12.

In the case of `FC(F)(F)CCl`, the “logP(lung)” value [2] is reported as 0.2, the “logK(blood)” value [3] is reported as 0.14 and the “logK(lung)” value [4] is reported as 0.34.

In the case of `ClC=C(Cl)Cl` [TRICHLOROETHYLENE], the “logP(lung)” value [2] is reported as 0.01, the “logK(blood)” value [3] is reported as 1.14 and the “logK(lung)” value [4] is reported as 1.15.

For `C1CC1` [CYCLOPROPANE], the “logP(lung)” value [2] was -0.3, the “logK(blood)” value [3] was -0.21 and the “logK(lung)” value [4] was -0.51.

For `ClCCl` [METHYLENE CHLORIDE], the “logP(lung)” value [2] was -0.36, the “logK(blood)” value [3] was 1.12 and the “logK(lung)” value [4] was 0.76.

In the case of `FC(F)OC(F)(F)C(F)Cl` (centres undefined), the “logP(lung)” value [2] is reported as 0.21, the “logK(blood)” value [3] is reported as 0.35 and the “logK(lung)” value [4] is reported as 0.56.

With `COc1cccc2c1C(=O)c1c(O)c3c(c(O)c1C2=O)C[C@@](O)(C(=O)CO)C[C@@H]3O[C@H]1C[C@H](N)[C@H](O)[C@H](C)O1` [DOXORUBICIN] the “logP(lung)” value [1] was 0.53.

For `Cc1nc(Nc2ccc(F)cc2)nc(N2CCc3ccccc3C2C)c1C.Cl` (centres undefined) [REVAPRAZAN HYDROCHLORIDE], the “logP(lung)” value [1] was 1.34.

In the case of `Nc1cc(Cl)c(S(N)(=O)=O)cc1-c1nnn[nH]1`, the “logP(lung)” value [1] is reported as 0.6.

For `Cc1ccccc1C` [O-XYLENE], the “logP(lung)” value [2] was 0.52, the “logK(blood)” value [3] was 1.42 and the “logK(lung)” value [4] was 1.94.

For `ClC(Cl)=C(Cl)Cl` [TETRACHLOROETHYLENE], the “logP(lung)” value [2] was 0.67, the “logK(blood)” value [3] was 1.19 and the “logK(lung)” value [4] was 1.86.

With `C=CC` [PROPENE] the “logP(lung)” value [2] was -0.03, the “logK(blood)” value [3] was -0.21 and the “logK(lung)” value [4] was -0.24.

For `c1cc2ccc3cccc4ccc(c1)c2c34` [PYRENE], the “logP(lung)” value [1] was 0.35.

In the case of `c1ccccc1` [BENZENE], the “logK(blood)” value [3] is reported as 1.05 and the “logK(lung)” value [4] is reported as 1.08.

In the case of `CCC1(c2ccccc2)C(=O)NC(=O)NC1=O` [PHENOBARBITAL], the “logP(lung)” value [1] is reported as -0.08.

In the case of `C=C`, the “logP(lung)” value [2] is reported as 0.28, the “logK(blood)” value [3] is reported as -0.53 and the “logK(lung)” value [4] is reported as -0.25.

For `FCOC(C(F)(F)F)C(F)(F)F` [SEVOFLURANE], the “logP(lung)” value [2] was 0.31, the “logK(blood)” value [3] was -0.2 and the “logK(lung)” value [4] was 0.11.

For `O=C(O)c1ccc(-c2ccccc2)cc1`, the “logP(lung)” value [1] was -0.55.

In the case of `COC(=O)C(c1ccccc1)C1CCCCN1` (centres undefined) [METHYLPHENIDATE], the “logP(lung)” value [1] is reported as 1.54.

With `CCCC1(CC)C(=O)NC(=O)NC1=O` the “logP(lung)” value [1] was 0.16.

With `FC(F)(F)C(Cl)Br` (centres undefined) [HALOTHANE] the “logP(lung)” value [2] was -0.11, the “logK(blood)” value [3] was 0.57 and the “logK(lung)” value [4] was 0.46.

For `CO` [METHYL ALCOHOL], the “logP(lung)” value [2] was -0.17, the “logK(blood)” value [3] was 3.41 and the “logK(lung)” value [4] was 3.24.

For `O=c1[nH]c(=O)n(C2CCCO2)cc1F` (centres undefined) [TEGAFUR], the “logP(lung)” value [1] was -0.59.

For `COC(F)(F)C(Cl)Cl` [METHOXYFLURANE], the “logP(lung)” value [2] was -0.08, the “logK(blood)” value [3] was 1.28 and the “logK(lung)” value [4] was 1.2.

With `FC(F)OC(Cl)C(F)(F)F` (centres undefined) [ISOFLURANE] the “logP(lung)” value [2] was 0, the “logK(blood)” value [3] was 0.2 and the “logK(lung)” value [4] was 0.2.

In the case of `CC(C)NCC(O)COc1cccc2[nH]ccc12` (centres undefined) [PINDOLOL], the “logP(lung)” value [1] is reported as 1.01.

For `CCc1ccc(C(=O)C(C)CN2CCCC2)cc1` (centres undefined) [INAPERISONE], the “logP(lung)” value [1] was 1.52.

In the case of `CCOc1ccccc1C(N)=O` [ETHENZAMIDE], the “logP(lung)” value [1] is reported as -0.03.

For `CC(C)=CCN1CC[C@]2(C)c3cc(O)ccc3C[C@H]1[C@H]2C` [(+)-PENTAZOCINE], the “logP(lung)” value [1] was 1.43.

For `C1CCCCC1` [CYCLOHEXANE], the “logP(lung)” value [2] was 0.26, the “logK(blood)” value [3] was 0.17 and the “logK(lung)” value [4] was 0.43.

For `CC(Cl)(Cl)Cl` [TRICHLOROETHANE], the “logP(lung)” value [2] was 0.04, the “logK(blood)” value [3] was 0.63 and the “logK(lung)” value [4] was 0.67.

In the case of `CSc1ccc2c(c1)N(CCC1CCCCN1C)c1ccccc1S2` (centres undefined) [THIORIDAZINE], the “logP(lung)” value [1] is reported as 1.13.

For `Cc1onc(-c2c(Cl)cccc2Cl)c1C(=O)N[C@@H]1C(=O)N2[C@@H]1SC(C)(C)[C@@H]2C(=O)O` [DICLOXACILLIN], the “logP(lung)” value [1] was -0.92.

In the case of `CC` [ETHANE], the “logP(lung)” value [2] is reported as -0.26, the “logK(blood)” value [3] is reported as -1.02 and the “logK(lung)” value [4] is reported as -1.28.

With `CN1CCC[C@H]1c1cccnc1` [NICOTINE] the “logP(lung)” value [1] was 0.32.

With `CC(C)NCC(O)COc1ccc(COCCOC(C)C)cc1` (centres undefined) [BISOPROLOL] the “logP(lung)” value [1] was 1.62.

In the case of `C=CC(=C)Cl` [CHLOROPRENE], the “logK(lung)” value [4] is reported as 1.12.

In the case of `FS(F)(F)(F)(F)F` [SULFUR HEXAFLUORIDE], the “logP(lung)” value [2] is reported as 0.03, the “logK(blood)” value [3] is reported as -2.17 and the “logK(lung)” value [4] is reported as -2.14.

In the case of `c1ccc(C2(N3CCCCC3)CCCCC2)cc1` [PHENCYCLIDINE], the “logP(lung)” value [1] is reported as 1.61.

For `C1CO1` [OXIRANE], the “logP(lung)” value [2] was -0.01, the “logK(blood)” value [3] was 1.8 and the “logK(lung)” value [4] was 1.79.

With `CCC1(CC)C(=O)NC(=O)NC1=O` [BARBITAL] the “logP(lung)” value [1] was 0.

For `CN(C/C=C/C#CC(C)(C)C)Cc1cccc2ccccc12` [TERBINAFINE], the “logP(lung)” value [1] was 0.41.

In the case of `CCCCCCC1(CC)C(=O)NC(=O)NC1=O`, the “logP(lung)” value [1] is reported as 0.08.

With `CCCCCCCC1(CC)C(=O)NC(=O)NC1=O` the “logP(lung)” value [1] was 0.12.

For `CC(C)(C)NC[C@H](O)COc1nsnc1N1CCOCC1` [TIMOLOL], the “logP(lung)” value [1] was 1.43.

In the case of `CCCC(CCC)C(=O)O` [VALPROIC ACID], the “logP(lung)” value [1] is reported as -0.38.

In the case of `CCn1cc(C(=O)O)c(=O)c2ccc(C)nc21` [NALIDIXIC ACID], the “logP(lung)” value [1] is reported as -0.48.

With `CCC1(C)C(=O)NC(=O)NC1=O` the “logP(lung)” value [1] was -0.21.

With `COC(=O)[C@H]1[C@@H](OC(=O)c2ccccc2)C[C@@H]2CC[C@H]1N2C` [COCAINE] the “logP(lung)” value [1] was 1.06.

For `CCCCC1(CC)C(=O)NC(=O)NC1=O` [BUTETHAL], the “logP(lung)” value [1] was 0.18.

For `O=C1NC(=O)C(c2ccccc2)(c2ccccc2)N1` [PHENYTOIN], the “logP(lung)” value [1] was -0.1.

With `O=C(O)c1ccccc1O` [SALICYLIC ACID] the “logP(lung)” value [1] was -0.72.

For `Cc1cccc(OCC(O)CNC(C)C)c1` (centres undefined) [TOLIPROLOL], the “logP(lung)” value [1] was 0.89.

For `CN1C(C(=O)Nc2ccccn2)=C(O)c2sccc2S1(=O)=O` [TENOXICAM], the “logP(lung)” value [1] was -0.49.

In the case of `CN1C(=O)CC[C@H]1c1cccnc1` [COTININE], the “logP(lung)” value [1] is reported as -0.18.

In the case of `CCCC1O[C@@H]2C[C@H]3[C@@H]4CCC5=CC(=O)C=C[C@]5(C)[C@H]4[C@@H](O)C[C@]3(C)[C@]2(C(=O)CO)O1` (some centres undefined) [BUDESONIDE], the “logP(lung)” value [1] is reported as 0.94.

With `CCCCCC1(CC)C(=O)NC(=O)NC1=O` the “logP(lung)” value [1] was 0.22.

With `COn1cc(C(=O)O)c(=O)c2cc3c(cc21)OCO3` [MILOXACIN] the “logP(lung)” value [1] was -0.29.

For `CC(C)NCC(O)COc1ccc(CCOCC2CC2)cc1` (centres undefined) [BETAXOLOL], the “logP(lung)” value [1] was 2.29.

For `CCCCCCCCC1(CC)C(=O)NC(=O)NC1=O`, the “logP(lung)” value [1] was 0.49.

In the case of `CC1(C)S[C@@H]2[C@H](NC(=O)COc3ccccc3)C(=O)N2[C@H]1C(=O)O` [PENICILLIN V], the “logP(lung)” value [1] is reported as -0.8.

With `CCCC(C)C1(CC)C(=O)NC(=S)NC1=O` (centres undefined) [THIOPENTAL] the “logP(lung)” value [1] was 0.08.

In the case of `CN1C(=O)NC(=O)C(C)(C2=CCCCC2)C1=O` (centres undefined) [HEXOBARBITAL], the “logP(lung)” value [1] is reported as 0.45.

For `CC1(C)[C@@H](O)CC[C@]2(C)[C@H]3C(=O)C=C4[C@@H]5C[C@@](C)(C(=O)O)CC[C@]5(C)CC[C@@]4(C)[C@]3(C)CC[C@@H]12` [ENOXOLONE], the “logP(lung)” value [1] was -0.66.
